Measured values taken from BindingDB's records for doi:10.1016/j.bmc.2009.11.019 (Istituto Di Ricerche Chimiche E Biochimiche G. Ronzoni, 2010).

Assay: Inhibition of integrin alphaV receptor-mediated adhesion of human PC3 cells to vitronectin after 1 hr by toluidine blue staining

Row | Compound | IC50 [µM]
1 | CC[C@@]1(O)C(=O)OCc2c1cc1n(c2=O)Cc2c-1nc1ccccc1c2/C=N/OCCNC(=O)CCC(=O)NCc1ccc(C[C@@H]2NC(=O)[C@@H](Cc3ccccc3)NC(=O)[C@H](CC(=O)O)NC(=O)CNC(=O)[C@H](CCCN=C(N)N)NC2=O)cc1 [2-[(2S,5R,8S,11S)-5-benzyl-11-(3-carbamimidamidopropyl)-8-{[4-({3-[(2-{[(E)-{[(19S)-19-ethyl-19-hydroxy-14,18-dioxo-17-oxa-3,13-diazapentacyclo[11.8.0.0^{2,11}.0^{4,9}.0^{15,20}]henicosa-1(21),2,4,6,8,10,15(20)-heptaen-10-yl]methylidene}amino]oxy}ethyl)carbamoyl]propanamido}methyl)phenyl]methyl}-3,6,9,12,15-pentaoxo-1,4,7,10,13-pentaazacyclopentadecan-2-yl]acetic acid] | > 100
2 | CC[C@@]1(O)C(=O)OCc2c1cc1n(c2=O)Cc2c-1nc1ccccc1c2/C=N/OCCNC(=O)COCCOCCOCC(=O)NCc1ccc(C[C@@H]2NC(=O)[C@@H](Cc3ccccc3)NC(=O)[C@H](CC(=O)O)NC(=O)CNC(=O)[C@H](CCCN=C(N)N)NC2=O)cc1 [2-[(2S,5R,8S,11S)-5-benzyl-11-(3-carbamimidamidopropyl)-8-{[4-({2-[2-(2-{[(2-{[(E)-{[(19S)-19-ethyl-19-hydroxy-14,18-dioxo-17-oxa-3,13-diazapentacyclo[11.8.0.0^{2,11}.0^{4,9}.0^{15,20}]henicosa-1(21),2,4,6,8,10,15(20)-heptaen-10-yl]methylidene}amino]oxy}ethyl)carbamoyl]methoxy}ethoxy)ethoxy]acetamido}methyl)phenyl]methyl}-3,6,9,12,15-pentaoxo-1,4,7,10,13-pentaazacyclopentadecan-2-yl]acetic acid] | 8.3
3 | CC[C@@]1(O)C(=O)OCc2c1cc1n(c2=O)Cc2c-1nc1ccccc1c2/C=N\OCCNC(=O)CCC[C@@H]1NC(=O)[C@@H](Cc2ccccc2)NC(=O)[C@H](CC(=O)O)NC(=O)CNC(=O)[C@H](CCCN=C(N)N)NC1=O [2-[(2S,5R,8S,11S)-5-benzyl-11-(3-carbamimidamidopropyl)-8-{3-[(2-{[(Z)-{[(19S)-19-ethyl-19-hydroxy-14,18-dioxo-17-oxa-3,13-diazapentacyclo[11.8.0.0^{2,11}.0^{4,9}.0^{15,20}]henicosa-1(21),2,4,6,8,10,15(20)-heptaen-10-yl]methylidene}amino]oxy}ethyl)carbamoyl]propyl}-3,6,9,12,15-pentaoxo-1,4,7,10,13-pentaazacyclopentadecan-2-yl]acetic acid] | 5.8
4 | CC[C@@]1(O)C(=O)OCc2c1cc1n(c2=O)Cc2c-1nc1ccccc1c2CCC=NNC(=O)COCCOCCOCC(=O)NCc1ccc(C[C@@H]2NC(=O)[C@@H](Cc3ccccc3)NC(=O)[C@H](CC(=O)O)NC(=O)CNC(=O)[C@H](CCCN=C(N)N)NC2=O)cc1 [2-[(2S,5R,8S,11S)-5-benzyl-11-(3-carbamimidamidopropyl)-8-({4-[(2-{2-[2-({N'-[(1E)-3-[(19S)-19-ethyl-19-hydroxy-14,18-dioxo-17-oxa-3,13-diazapentacyclo[11.8.0.0^{2,11}.0^{4,9}.0^{15,20}]henicosa-1(21),2,4,6,8,10,15(20)-heptaen-10-yl]propylidene]hydrazinecarbonyl}methoxy)ethoxy]ethoxy}acetamido)methyl]phenyl}methyl)-3,6,9,12,15-pentaoxo-1,4,7,10,13-pentaazacyclopentadecan-2-yl]acetic acid] | 11
5 | CC[C@@]1(O)C(=O)OCc2c1cc1n(c2=O)Cc2c-1nc1ccccc1c2C=NNC(=O)COCCOCCOCC(=O)NCc1ccc(C[C@@H]2NC(=O)[C@@H](Cc3ccccc3)NC(=O)[C@H](CC(=O)O)NC(=O)CNC(=O)[C@H](CCCN=C(N)N)NC2=O)cc1 [2-[(2S,5R,8S,11S)-5-benzyl-11-(3-carbamimidamidopropyl)-8-({4-[(2-{2-[2-({N'-[(1E)-[(19S)-19-ethyl-19-hydroxy-14,18-dioxo-17-oxa-3,13-diazapentacyclo[11.8.0.0^{2,11}.0^{4,9}.0^{15,20}]henicosa-1(21),2,4,6,8,10,15(20)-heptaen-10-yl]methylidene]hydrazinecarbonyl}methoxy)ethoxy]ethoxy}acetamido)methyl]phenyl}methyl)-3,6,9,12,15-pentaoxo-1,4,7,10,13-pentaazacyclopentadecan-2-yl]acetic acid] | 4.8
6 | NC(N)=NCCC[C@@H]1NC(=O)C(c2ccc(CNC(=O)COCCOCCOCC(=O)O)cc2)NC(=O)[C@@H](Cc2ccccc2)NC(=O)[C@H](CC(=O)O)NC(=O)CNC1=O (stereo partly drawn) [1-(4-((5S,11S,14R)-14-benzyl-11-(carboxymethyl)-5-(3-guanidinopropyl)-3,6,9,12,15-pentaoxo-1,4,7,10,13-pentaazacyclopentadecan-2-yl)phenyl)-3-oxo-5,8,11-trioxa-2-azatridecan-13-oic acid] | 18.8
7 | NNC(=O)COCCOCCOCC(=O)NCc1ccc([C@@H]2NC(=O)[C@@H](Cc3ccccc3)NC(=O)[C@H](CC(=O)O)NC(=O)CNC(=O)[C@H](CCCN=C(N)N)NC2=O)cc1 [2-((2S,5R,8S,11S)-5-benzyl-11-(3-guanidinopropyl)-8-(4-(13-hydrazinyl-3,13-dioxo-5,8,11-trioxa-2-azatridecyl)phenyl)-3,6,9,12,15-pentaoxo-1,4,7,10,13-pentaazacyclopentadecan-2-yl)acetic acid] | 15.6
